Laboratory results reported in PubChem BioAssay (NCI).
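Each compound was tested at five concentrations against cells in 96-well plates for 48 hours. GI50 marks 50% less growth. At the TGI there is no net growth.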

Assays:
Assay in all cases: NCI tumour cell line growth inhibition, 48 h
IGROV1 ovarian = system: IGROV1 ovarian
COLO 205 colon = system: COLO 205 colon
HT29 colon = system: HT29 colon
M14 melanoma = system: M14 melanoma
OVCAR-3 ovarian = system: OVCAR-3 ovarian
SN12C renal = system: SN12C renal
UACC-62 melanoma = system: UACC-62 melanoma
OVCAR-5 ovarian = system: OVCAR-5 ovarian
T-47D breast = system: T-47D breast
OVCAR-4 ovarian = system: OVCAR-4 ovarian
PC-3 prostate = system: PC-3 prostate
MCF7 breast = system: MCF7 breast
A549 NSCLC = system: A549 NSCLC
HL-60(TB) leukemia = system: HL-60(TB) leukemia
MALME-3M melanoma = system: MALME-3M melanoma
SK-MEL-28 melanoma = system: SK-MEL-28 melanoma
SK-MEL-5 melanoma = system: SK-MEL-5 melanoma
SF-539 CNS = system: SF-539 CNS
EKVX NSCLC = system: EKVX NSCLC
HCT-15 colon = system: HCT-15 colon
U251 CNS = system: U251 CNS
MDA-MB-435 = system: MDA-MB-435
SNB-19 CNS = system: SNB-19 CNS
RPMI-8226 leukemia = system: RPMI-8226 leukemia
CCRF-CEM leukemia = system: CCRF-CEM leukemia
SW-620 colon = system: SW-620 colon
BT-549 breast = system: BT-549 breast
A498 renal = system: A498 renal
NCI-H522 lung = system: NCI-H522 lung
UO-31 renal = system: UO-31 renal
LOX IMVI melanoma = system: LOX IMVI melanoma
RXF 393 renal = system: RXF 393 renal
K-562 leukemia = system: K-562 leukemia
SK-MEL-2 melanoma = system: SK-MEL-2 melanoma
NCI-H226 lung = system: NCI-H226 lung
NCI-H460 lung = system: NCI-H460 lung
DU-145 prostate = system: DU-145 prostate
HCC-2998 colon = system: HCC-2998 colon
HOP-62 NSCLC = system: HOP-62 NSCLC
SK-OV-3 ovarian = system: SK-OV-3 ovarian
TK-10 renal = system: TK-10 renal
MOLT-4 leukemia = system: MOLT-4 leukemia
UACC-257 melanoma = system: UACC-257 melanoma
SR leukemia = system: SR leukemia
KM12 colon = system: KM12 colon
NCI-H23 lung = system: NCI-H23 lung
SF-295 CNS = system: SF-295 CNS
SNB-75 CNS = system: SNB-75 CNS
786-0 renal = system: 786-0 renal
SF-268 CNS = system: SF-268 CNS
ACHN renal = system: ACHN renal
HCT-116 colon = system: HCT-116 colon
HOP-92 NSCLC = system: HOP-92 NSCLC
OVCAR-8 ovarian = system: OVCAR-8 ovarian
NCI/ADR-RES ovarian = system: NCI/ADR-RES ovarian
MDA-MB-231 breast = system: MDA-MB-231 breast
HS 578T breast = system: HS 578T breast

## O=C(C1CC1)N1CC[C@@H](Cc2n[nH]c(=O)n2-c2ccc(-c3ccc4occc4c3)cc2)C1
IGROV1 ovarian
  GI50: 21.2 µM
  TGI: > 100 µM
COLO 205 colon
  GI50: 15 µM
  TGI: 72.5 µM
HT29 colon
  GI50: 7.51 µM
  TGI: > 81.1 µM
M14 melanoma
  GI50: 17.2 µM
  TGI: > 100 µM
OVCAR-3 ovarian
  GI50: 15.8 µM
  TGI: > 73.7 µM
SN12C renal
  GI50: 23.2 µM
  TGI: > 100 µM
UACC-62 melanoma
  GI50: 21.1 µM
  TGI: > 100 µM
OVCAR-5 ovarian
  GI50: 42.5 µM
  TGI: > 100 µM
T-47D breast
  GI50: 18 µM
  TGI: > 96.5 µM
OVCAR-4 ovarian
  GI50: 9.02 µM
  TGI: > 94.5 µM
PC-3 prostate
  GI50: 23.2 µM
  TGI: > 100 µM
MCF7 breast
  GI50: 1.62 µM
  TGI: > 100 µM
A549 NSCLC
  GI50: 16.9 µM
  TGI: > 100 µM
HL-60(TB) leukemia
  GI50: 0.131 µM
  TGI: > 44.4 µM
MALME-3M melanoma
  GI50: 22.4 µM
  TGI: > 87.8 µM
SK-MEL-28 melanoma
  GI50: 32 µM
  TGI: > 100 µM
SK-MEL-5 melanoma
  GI50: 12 µM
  TGI: 33.6 µM
SF-539 CNS
  GI50: 8.16 µM
  TGI: > 100 µM
EKVX NSCLC
  GI50: 12.6 µM
  TGI: > 100 µM
HCT-15 colon
  GI50: 11.2 µM
  TGI: > 100 µM
U251 CNS
  GI50: 25.4 µM
  TGI: > 100 µM
MDA-MB-435
  GI50: 14.8 µM
  TGI: > 87.6 µM
SNB-19 CNS
  GI50: 17 µM
  TGI: > 100 µM
RPMI-8226 leukemia
  GI50: 2.82 µM
  TGI: > 75.4 µM
CCRF-CEM leukemia
  GI50: 15.6 µM
  TGI: > 100 µM
SW-620 colon
  GI50: 27.6 µM
  TGI: > 100 µM
BT-549 breast
  GI50: 1.65 µM
  TGI: 48.7 µM
A498 renal
  GI50: 15 µM
  TGI: > 85.4 µM
NCI-H522 lung
  GI50: 20.9 µM
  TGI: > 92 µM
UO-31 renal
  GI50: 1.91 µM
  TGI: 65.4 µM
LOX IMVI melanoma
  GI50: 10.3 µM
  TGI: 51.3 µM
RXF 393 renal
  GI50: 24.2 µM
  TGI: > 100 µM
K-562 leukemia
  GI50: 8.18 µM
  TGI: > 100 µM
SK-MEL-2 melanoma
  GI50: 21.5 µM
  TGI: 70.3 µM
NCI-H226 lung
  GI50: 19.6 µM
  TGI: > 100 µM
NCI-H460 lung
  GI50: 3.2 µM
  TGI: > 100 µM
DU-145 prostate
  GI50: 23.4 µM
  TGI: > 100 µM
HCC-2998 colon
  GI50: 33.9 µM
  TGI: > 100 µM
HOP-62 NSCLC
  GI50: 23.4 µM
  TGI: > 100 µM
SK-OV-3 ovarian
  GI50: 25.4 µM
  TGI: > 100 µM
TK-10 renal
  GI50: 28.3 µM
  TGI: > 100 µM
MOLT-4 leukemia
  GI50: 6.09 µM
  TGI: > 88.5 µM
UACC-257 melanoma
  GI50: 29 µM
  TGI: > 96.6 µM
SR leukemia
  GI50: 23.9 µM
  TGI: > 100 µM
KM12 colon
  GI50: 17.6 µM
  TGI: > 100 µM
NCI-H23 lung
  GI50: 39.1 µM
  TGI: > 100 µM
SF-295 CNS
  GI50: 11.5 µM
  TGI: > 100 µM
SNB-75 CNS
  GI50: 13.7 µM
  TGI: > 94.1 µM
786-0 renal
  GI50: 12.3 µM
  TGI: > 100 µM
SF-268 CNS
  GI50: 12.4 µM
  TGI: > 100 µM
ACHN renal
  GI50: 11.8 µM
  TGI: 54.8 µM
HCT-116 colon
  GI50: 14.3 µM
  TGI: 84 µM
HOP-92 NSCLC
  GI50: 24.4 µM
  TGI: > 100 µM
OVCAR-8 ovarian
  GI50: 25.3 µM
  TGI: > 100 µM
NCI/ADR-RES ovarian
  GI50: 30.8 µM
  TGI: > 100 µM
MDA-MB-231 breast
  GI50: 20.4 µM
  TGI: > 100 µM
HS 578T breast
  GI50: 21.3 µM
  TGI: > 100 µM
